Source: article PMC9917560, “Design, Synthesis and Antimicrobial Evaluation of New N-(1-Hydroxy-1,3-dihydrobenzo[c][1,2]oxaborol-6-yl)(hetero)aryl-2-carboxamides as Potential Inhibitors of Mycobacterial Leucyl-tRNA Synthetase” (International Journal of Molecular Sciences, 2023)
pIC50: −log10 of the molar value. In brackets after ≈: the same amount, converted by molar mass. Read-outs that look alike come from different tables or passages of the source.

Legend:
[1] = tested on: Candida tropicalis CCM 8264 (ATCC 750); assay: Antifungal microdilution broth (EUCAST); assay type: cell-based; settings: read-out: MIC Candida tropicalis
[2] = tested on: Aspergillus fumigatus ATCC 204305; assay: Antifungal microdilution broth (EUCAST); assay type: cell-based; settings: Aspergillus fumigatus, ATCC204305, read-out: MIC Aspergillus fumigatus
[3] = tested on: Pseudomonas aeruginosa CCM 3955 (ATCC 27853); assay: Antibacterial microdilution broth (EUCAST); assay type: cell-based; settings: read-out: MIC Pseudomonas aeruginosa
[4] = tested on: Mycobacterium tuberculosis H37Ra ITM-M006710 (ATCC 9431); assay: Antimycobacterial microdilution (resazurin) vs Mtb H37Ra; assay type: cell-based
[5] = tested on: Staphylococcus epidermidis CCM 4418 (ATCC 12228); assay: Antibacterial microdilution broth (EUCAST); assay type: cell-based; settings: read-out: MIC Staphylococcus epidermidis
[6] = tested on: Mycobacterium tuberculosis H37Rv CNCTC My 331/88 (ATCC 27294); assay: Microplate Alamar Blue assay vs Mtb H37Rv; assay type: cell-based; settings: Mycobacterium tuberculosis
[7] = tested on: Aspergillus flavus CCM 8363; assay: Antifungal microdilution broth (EUCAST); assay type: cell-based; settings: Aspergillus flavus, CCM8363, read-out: MIC Aspergillus flavus
[8] = tested on: Escherichia coli CCM 3954 (ATCC 25922); assay: Antibacterial microdilution broth (EUCAST); assay type: cell-based; settings: Escherichia coli, read-out: MIC Escherichia coli
[9] = tested on: Mycolicibacterium aurum DSM 43,999 (ATCC 23366); assay: Antimycobacterial microdilution (resazurin) vs M. aurum; assay type: cell-based; settings: Middlebrook 7H9, resazurin, read-out: MIC M. aurum
[10] = tested on: Candida krusei CCM 8271 (ATCC 6258); assay: Antifungal microdilution broth (EUCAST); assay type: cell-based; settings: Pichia kudriavzevii, read-out: MIC Candida krusei
[11] = tested on: Candida parapsilosis CCM 8260 (ATCC 22019); assay: Antifungal microdilution broth (EUCAST); assay type: cell-based; settings: Lodderomyces parapsilosis, read-out: MIC Candida parapsilosis
[12] = tested on: Trichophyton interdigitale CCM 8377 (ATCC 9533); assay: Antifungal microdilution broth (EUCAST); assay type: cell-based; settings: Trichophyton interdigitale, read-out: MIC Trichophyton interdigitale
[13] = tested on: Klebsiella pneumoniae CCM 4415 (ATCC 10031); assay: Antibacterial microdilution broth (EUCAST); assay type: cell-based; settings: Klebsiella pneumoniae, read-out: MIC Klebsiella pneumoniae
[14] = tested on: Candida albicans CCM 8320 (ATCC 24433); assay: Antifungal microdilution broth (EUCAST); assay type: cell-based; settings: Candida albicans, read-out: MIC Candida albicans
[15] = tested on: Staphylococcus aureus subsp. aureus CCM 4223 (ATCC 29213); assay: Antibacterial microdilution broth (EUCAST); assay type: cell-based; settings: read-out: MIC Staphylococcus aureus subsp. aureus
HepG2 cell line = assay: Cytotoxicity screening, CellTiter 96 assay; settings: for pIC50: Homo sapiens, HepG2, 24 h, read-out: IC50 HepG2; for toxicity to HepG2 up to highest tested concentration: tested up to 500 µM (2, 3), 250 µM (12, 17), 100 µM (6, 7, 11) because of solubility
[16] = tested on: Acinetobacter baumannii DSM 30007 (ATCC 19606); assay: Antibacterial microdilution broth (EUCAST); assay type: cell-based; settings: read-out: MIC Acinetobacter baumannii
[17] = tested on: Mycolicibacterium smegmatis DSM 43,465 (ATCC 607); assay: Antimycobacterial microdilution (resazurin) vs M. smegmatis; assay type: cell-based; settings: Middlebrook 7H9, resazurin, read-out: MIC M. smeg.
[18] = tested on: Mycobacterium kansasii DSM 44,162 (ATCC 12478); assay: Antimycobacterial microdilution (resazurin) vs M. kansasii; assay type: cell-based; settings: read-out: MIC M. kansasii
[19] = tested on: Lichtheimia corymbifera CCM 8077; assay: Antifungal microdilution broth (EUCAST); assay type: cell-based; settings: Lichtheimia corymbifera, CCM8077, read-out: MIC Lichtheimia corymbifera
[20] = tested on: methicillin-resistant Staphylococcus aureus subsp. aureus (MRSA) CCM 4750 (ATCC 43300); assay: microbe, parasite or virus in culture; assay type: cell-based; settings: read-out: MIC Methicillin-resistant Staphylococcus aureus subsp. aureus
[21] = tested on: Mycobacterium avium DSM 44,156 (ATCC 25291); assay: Antimycobacterial microdilution (resazurin) vs M. avium; assay type: cell-based; settings: Mycobacterium avium
[22] = tested on: Enterococcus faecalis CCM 4224 (ATCC 29212); assay: Antibacterial microdilution broth (EUCAST); assay type: cell-based; settings: read-out: MIC Enterococcus faecalis
[23] = Middlebrook 7H9, resazurin, recalculated from µg/mL, read-out: MIC Mtb H37Ra
[24] = pH 6.6, MABA, Middlebrook 7H9 pH 6.6, recalculated from µg/mL, read-out: MIC Mtb H37Rv
[25] = Middlebrook 7H9, resazurin, read-out: MIC M. avium

Cc1cnc(C(=O)Nc2ccc3c(c2)B(O)OC3)cn1 [Compound 2, N-(1-hydroxy-1,3-dihydrobenzo[c][1,2]oxaborol-6-yl)-5-methylpyrazine-2-carboxamide]
MIC ([1]; 24h incubation): > 500 µM
MIC ([1]; 48h incubation): > 500 µM
MIC ([2]; 24h incubation): > 500 µM
MIC ([2]; 48h incubation): > 500 µM
MIC ([3]; 24h incubation): > 500 µM
MIC ([3]; 48h incubation): > 500 µM
MIC [4, 23]: 58.1 µM (≈ 15.6 µg/mL)
MIC ([5]; 24h incubation): 500 µM (≈ 135 µg/mL)
MIC ([5]; 48h incubation): 500 µM (≈ 135 µg/mL)
MIC [6, 24]: 46.5 µM (≈ 12.5 µg/mL)
MIC ([7]; 24h incubation): > 500 µM
MIC ([7]; 48h incubation): > 500 µM
melting point: 215 to 216.1 °C
MIC ([8]; 24h incubation): > 500 µM
MIC ([8]; 48h incubation): > 500 µM
MIC [9]: 14.5 µM (≈ 3.91 µg/mL)
MIC ([10]; 24h incubation): > 500 µM
MIC ([10]; 48h incubation): > 500 µM
MIC ([11]; 24h incubation): > 500 µM
MIC ([11]; 48h incubation): > 500 µM
MIC ([12]; 72h incubation): > 500 µM
MIC ([12]; 120h incubation): > 500 µM
MIC ([13]; 24h incubation): > 500 µM
MIC ([13]; 48h incubation): > 500 µM
MIC ([14]; 24h incubation): > 500 µM
MIC ([14]; 48h incubation): > 500 µM
MIC ([15]; 24h incubation): 250 µM (≈ 67.3 µg/mL)
MIC ([15]; 48h incubation): 250 µM (≈ 67.3 µg/mL)
pIC50 (HepG2 cell line): < 3.30
toxicity to HepG2 up to highest tested concentration (HepG2 cell line): non-toxic
MIC ([16]; 24h incubation): > 500 µM
MIC ([16]; 48h incubation): > 500 µM
MIC [17]: 29 µM (≈ 7.81 µg/mL)
MIC [18]: 58.1 µM (≈ 15.6 µg/mL)
MIC ([19]; 24h incubation): > 500 µM
MIC ([19]; 48h incubation): > 500 µM
MIC ([20]; 24 h): > 500 µM
MIC ([20]; 48 h): > 500 µM
MIC [21, 25]: 58.1 µM (≈ 15.6 µg/mL)
MIC ([22]; 24h incubation): > 500 µM
MIC ([22]; 48h incubation): > 500 µM

Cc1nccnc1C(=O)Nc1ccc2c(c1)B(O)OC2 [Compound 3, N-(1-hydroxy-1,3-dihydrobenzo[c][1,2]oxaborol-6-yl)-3-methylpyrazine-2-carboxamide]
MIC ([1]; 24h incubation): > 500 µM
MIC ([1]; 48h incubation): > 500 µM
MIC ([2]; 24h incubation): > 500 µM
MIC ([2]; 48h incubation): > 500 µM
MIC ([3]; 24h incubation): > 500 µM
MIC ([3]; 48h incubation): > 500 µM
MIC ([4]; read-out: MIC Mtb H37Ra, Middlebrook 7H9, resazurin, recalculated from µg/mL): > 1850 µM
MIC ([5]; 24h incubation): > 500 µM
MIC ([5]; 48h incubation): > 500 µM
MIC ([6]; pH 6.6, read-out: MIC Mtb H37Rv, MABA, Middlebrook 7H9 pH 6.6, recalculated from µg/mL): 92.9 µM (≈ 25 µg/mL)
MIC ([7]; 24h incubation): > 500 µM
MIC ([7]; 48h incubation): > 500 µM
melting point: 262.9 to 264 °C
MIC ([8]; 24h incubation): > 500 µM
MIC ([8]; 48h incubation): > 500 µM
MIC [9]: 14.5 µM (≈ 3.91 µg/mL)
MIC ([10]; 24h incubation): > 500 µM
MIC ([10]; 48h incubation): > 500 µM
MIC ([11]; 24h incubation): > 500 µM
MIC ([11]; 48h incubation): > 500 µM
MIC ([12]; 72h incubation): > 500 µM
MIC ([12]; 120h incubation): > 500 µM
MIC ([13]; 24h incubation): > 500 µM
MIC ([13]; 48h incubation): > 500 µM
MIC ([14]; 24h incubation): > 500 µM
MIC ([14]; 48h incubation): > 500 µM
MIC ([15]; 24h incubation): > 500 µM
MIC ([15]; 48h incubation): > 500 µM
pIC50 (HepG2 cell line): < 3.30
toxicity to HepG2 up to highest tested concentration (HepG2 cell line): non-toxic
MIC ([16]; 24h incubation): > 500 µM
MIC ([16]; 48h incubation): > 500 µM
MIC [17]: 14.5 µM (≈ 3.91 µg/mL)
MIC ([18]; Middlebrook 7H9, resazurin): 58.1 µM (≈ 15.6 µg/mL)
MIC ([19]; 24h incubation): > 500 µM
MIC ([19]; 48h incubation): > 500 µM
MIC ([20]; 24 h): > 500 µM
MIC ([20]; 48 h): > 500 µM
MIC ([21]; read-out: MIC M. avium, Middlebrook 7H9, resazurin): > 1850 µM
MIC ([22]; 24h incubation): > 500 µM
MIC ([22]; 48h incubation): > 500 µM

Nc1nccnc1C(=O)Nc1ccc2c(c1)B(O)OC2 [Compound 6, 3-amino-N-(1-hydroxy-1,3-dihydrobenzo[c][1,2]oxaborol-6-yl)pyrazine-2-carboxamide]
MIC ([1]; 24h incubation): > 500 µM
MIC ([1]; 48h incubation): > 500 µM
MIC ([2]; 24h incubation): > 500 µM
MIC ([2]; 48h incubation): > 500 µM
MIC ([3]; 24h incubation): > 500 µM
MIC ([3]; 48h incubation): > 500 µM
MIC [4, 23]: > 1850 µM
MIC ([5]; 24h incubation): > 500 µM
MIC ([5]; 48h incubation): > 500 µM
MIC [6, 24]: > 370 µM
MIC ([7]; 24h incubation): > 500 µM
MIC ([7]; 48h incubation): > 500 µM
melting point: 246.6 to 249.4 °C
MIC ([8]; 24h incubation): > 500 µM
MIC ([8]; 48h incubation): > 500 µM
MIC [9]: 14.5 µM (≈ 3.91 µg/mL)
MIC ([10]; 24h incubation): > 500 µM
MIC ([10]; 48h incubation): > 500 µM
MIC ([11]; 24h incubation): > 500 µM
MIC ([11]; 48h incubation): > 500 µM
MIC ([12]; 72h incubation): > 500 µM
MIC ([12]; 120h incubation): > 500 µM
MIC ([13]; 24h incubation): > 500 µM
MIC ([13]; 48h incubation): > 500 µM
MIC ([14]; 24h incubation): > 500 µM
MIC ([14]; 48h incubation): > 500 µM
MIC ([15]; 24h incubation): > 500 µM
MIC ([15]; 48h incubation): > 500 µM
pIC50 (HepG2 cell line): < 4.00
toxicity to HepG2 up to highest tested concentration (HepG2 cell line): non-toxic
MIC ([16]; 24h incubation): > 500 µM
MIC ([16]; 48h incubation): > 500 µM
MIC [17]: 463 µM (≈ 125 µg/mL)
MIC [18]: > 1850 µM
MIC ([19]; 24h incubation): > 500 µM
MIC ([19]; 48h incubation): > 500 µM
MIC ([20]; 24 h): > 500 µM
MIC ([20]; 48 h): > 500 µM
MIC [21, 25]: > 1850 µM
MIC ([22]; 24h incubation): > 500 µM
MIC ([22]; 48h incubation): > 500 µM
